Measurements from patent publication US20060154896A1, “Phosphorylated dextrans” (priority 2002, published 2006).

Experiments:
[1] = system: mouse spleen cells; assay: Blastogenic activity on mouse spleen cells ([3H]-thymidine uptake, Stimulation Index); format: cell-based
From the text: In the preparation of immune cells, specific pathogen free (SPF) BALB/c mice (Japan SLC, Shizuoka, Japan) were used for examination. Five-week old male mice were purchased, and allowed to freely consume distilled water and MR breeder (Nihon Nosan Kogyo (Nosan Co.)), which is experimental feed for mice and rats. Six- to ten-week-old mice were used for the experiments.
BALB/c mice were anesthetized with ether, and then sacrificed by exsanguination. Their spleens were excised and washed with phosphate buffer (PBS-4×S.P; ph 7.3) containing streptomycin and penicillin ([…] and 400 U/ml, respectively) to remove adipose tissue and such. The spleens were well dispersed in gauze, and spleen cells were filtered through the gauze into PBS to prepare a cell suspension. This cell suspension was centrifuged (at 300×g for five minutes at 4° C.). After discarding the supernatant, the cells were re-suspended in RPMI-1640 medium (SIGMA). The suspension was filtered through a steel mesh to remove aggregated cells, and centrifuged again (five minutes at 300×g and 4° C.). After discarding the supernatant, the cells were finally re-suspended in RPMI-1640 containing 2% fetal calf serum (FCS: Biocell Lab., Inc., CA, US). The viable cell count was determined using a trypan blue staining method, and this suspension was used as the spleen cell suspension in the experiments.
The cell suspension was transferred into each well of a 96-well microplate (SUMITOMO BAKELITE CO., LTD. Tokyo, Japan) to give 2×10^5 cells per well. The dextran and five types of phosphorylated dextrans (molecular weights of about 10,000, 40,000, 160,000, 510,000, and 2,000,000) prepared in Example 1 were respectively added to the wells to a concentration of 100 μg/ml. The cells were then cultured in RPMI-1640 (2% FCS) under 5% CO2 at 37° C. for 48 hours. As positive control samples, lipopolysaccharide (LPS: B-cell mitogen, E. coli 0111: B4, SIGMA) or concanavalin A (ConA: T-cell mitogen, SIGMA) were added at a final concentration of 20 μg/ml and 2 μg/ml, respectively. […] TdR incorporated into the lymphocytes was determined using a liquid scintillation counter (LS1801; Beckman Coulter, Tokyo).
The blastogenic activities on lymphocytes were evaluated by calculating Stimulation Indexes (S.I.) from the [^3H] […]
The blastogenic activities of phosphorylated dextrans on mouse spleen cells were measured as described in Example 5, except that phosphorylated dextrans were added at concentrations of 100 ng/ml, 1 μg/ml, 10 μg/ml, 100 μg/ml, or 200 μg/ml, the cells were incubated in RPMI-1640 medium (2% FCS) under 5% CO2 at 37° C. for 48 hours, and methyl-[^3H]-thymidine uptakes were measured. Blastogenic activity was estimated by calculating S.I. values from the radioactivity, compared with a control. […]

[2] = system: B cells; assay: Blastogenic activity on separated B cells (MACS CD45R adsorbed fraction); format: cell-based, mouse; conditions: B cell fraction, 48 hours, FIG. 6
Protocol: (§1) The mouse spleen cell suspension prepared in Example 4 was washed by centrifugation (at 2,500 rpm for five minutes at 4° C.) with a buffer for cell separation (0.5% BSA, 2 mM EDTA/-PBS). 3×10^7 cells were incubated at 4° C. for 15 minutes with 50 μl of a 20-times diluted biotinylated anti-mouse CD45R antibody (CLTAG Lab, Burlingame, Calif.). The cells were washed by centrifugation with the cell separation buffer (five minutes at 2,500 rpm and 4° C.), and the supernatant was then discarded. 30 μl of ten-fold diluted streptavidin microbeads (Miltenyi Biotec GmbH, Germany) was added to the cells, and the mixture was incubated at 4° C. for 15 minutes. The cells were washed by centrifugation with the cell separation buffer (five minutes at 2,500 rpm and 4° C.), re-suspended in the same buffer, and the suspension was then filtered through a nylon mesh to remove aggregated cells. […]
(§2) The cells thus obtained were collected by centrifugation and re-suspended in RPMI-1640 containing 10% FCS. The blastogenic activity was then determined using the method described above, except that the stimulation by phosphorylated NPS was carried out at a concentration of 100 μg/ml, and the cells were incubated for 48 hours.

[3] = system: T cells; assay: Blastogenic activity on separated T cells (MACS flow-through fraction); format: cell-based, mouse; conditions: T cell fraction, 48 hours, FIG. 6
Protocol: as §1, §2

| Substance | blastogenic activity, S.I. (positive control) ([1]; LPS 20 μg/ml, 48 hours, FIG. 3) | blastogenic activity, S.I. (positive control) ([1]; LPS, FIG. 4 experiment) | activation of B cells (positive control) [2] | blastogenic activity, S.I. (positive control) ([1]; ConA 2 μg/ml, 48 hours, FIG. 3) | blastogenic activity, S.I. (positive control) ([1]; ConA, FIG. 4 experiment) | activation of T cells (positive control) [3] |
| --- | --- | --- | --- | --- | --- | --- |
| Lipopolysaccharide | 89.3 | 79.8 | specifically activated |  |  |  |
| concanavalin A |  |  |  | 189.4 | 247.8 | specifically activated |
